Measurements as given in ChEMBL document CHEMBL1201861, “Genomics of Drug Sensitity in Cancer screening data, Wellcome Trust Sanger Institute”.

How the values were obtained:
Experiment in all cases: cells
[1] = tested on: EW-16; assay type: functional, cell-based, Homo sapiens; conditions: Homo sapiens, EW-16;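 note: growth inhibition of human EW-16 cells, read out as cell viability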
Description: SANGER: Inhibition of human EW-16 cell growth in a cell viability assay.

[2] = tested on: D-392MG; assay type: functional, cell-based, Homo sapiens; conditions: Homo sapiens, D-392MG
[3] = tested on: A 172; assay type: functional, cell-based, Homo sapiens; conditions: Homo sapiens, A 172;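 note: growth inhibition of A172 cells, measured with a cell viability readout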
Description: SANGER: Inhibition of human A172 cell growth in a cell viability assay.

[4] = tested on: Panc1005; assay type: functional, cell-based, Homo sapiens; conditions: Homo sapiens, Panc1005;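 note: growth inhibition of human PANC-10-05 cells, measured by a cell viability assay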
Description: SANGER: Inhibition of human PANC-10-05 cell growth in a cell viability assay.

[5] = tested on: HT-144; assay type: functional, cell-based, Homo sapiens; conditions: Homo sapiens, HT-144
Description: SANGER: Inhibition of human HT-144 cell growth in a cell viability assay.

[6] = tested on: SW1990; assay type: functional, cell-based, Homo sapiens; conditions: Homo sapiens, SW1990;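 note: cell growth inhibition determined with a viability assay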
Description: SANGER: Inhibition of human SW1990 cell growth in a cell viability assay.

[7] = tested on: SK-OV-3; assay type: functional, cell-based, Homo sapiens; conditions: Homo sapiens, SK-OV-3;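 note: growth inhibition of SK-OV-3 human cells, read out with a cell viability assay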
Description: SANGER: Inhibition of human SK-OV-3 cell growth in a cell viability assay.

[8] = tested on: COLO-829; assay type: functional, cell-based, Homo sapiens; conditions: Homo sapiens, COLO-829
Description: SANGER: Inhibition of human COLO-829 cell growth in a cell viability assay.

[9] = tested on: MHH-ES-1; assay type: functional, cell-based, Homo sapiens; conditions: Homo sapiens, MHH-ES-1;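 note: cell growth inhibition measured by a cell viability assay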
Description: SANGER: Inhibition of human MHH-ES-1 cell growth in a cell viability assay.

[10] = tested on: Daoy; assay type: functional, cell-based, Homo sapiens; conditions: Homo sapiens, Daoy;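 note: daoy cell growth inhibition, read out as cell viability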
Description: SANGER: Inhibition of human Daoy cell growth in a cell viability assay.

[11] = tested on: NCI-H1755; assay type: functional, cell-based, Homo sapiens; conditions: Homo sapiens, NCI-H1755;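 note: cell viability readout used to measure growth inhibition of NCI-H1755 cells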
Description: SANGER: Inhibition of human NCI-H1755 cell growth in a cell viability assay.

[12] = tested on: JVM-2; assay type: functional, cell-based; conditions: Homo sapiens;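 note: growth inhibition of JVM-2 cells determined by a cell viability assay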
Description: SANGER: Inhibition of human JVM-2 cell growth in a cell viability assay.

[13] = tested on: HuP-T3; assay type: functional, cell-based, Homo sapiens; conditions: Homo sapiens, HuP-T3;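 note: HuP-T3 cell growth inhibition, read out with a cell viability assay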
Description: SANGER: Inhibition of human HuP-T3 cell growth in a cell viability assay.

[14] = tested on: KOSC-2; assay type: functional, cell-based, Homo sapiens; conditions: Homo sapiens, KOSC-2;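 note: growth inhibition of KOSC-2 cells, read out by a cell viability assay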
Description: SANGER: Inhibition of human KOSC-2 cell growth in a cell viability assay.

[15] = tested on: ES1; assay type: functional, cell-based, Homo sapiens; conditions: Homo sapiens, ES1;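 note: growth inhibition of ES1 cells, read out with a cell viability assay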
Description: SANGER: Inhibition of human ES1 cell growth in a cell viability assay.

[16] = tested on: SNU1; assay type: functional, cell-based; conditions: Homo sapiens;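 note: growth inhibition of human NCI-SNU-1 cells, measured with a cell viability assay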
Description: SANGER: Inhibition of human NCI-SNU-1 cell growth in a cell viability assay.

[17] = tested on: RPMI-8866; assay type: functional, cell-based; conditions: Homo sapiens
Description: SANGER: Inhibition of human RPMI-8866 cell growth in a cell viability assay.

[18] = tested on: 769-P; assay type: functional, cell-based, Homo sapiens; conditions: Homo sapiens, 769-P
Description: SANGER: Inhibition of human 769-P cell growth in a cell viability assay.

[19] = tested on: SCC-25; assay type: functional, cell-based, Homo sapiens; conditions: Homo sapiens, SCC-25;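 note: growth inhibition of SCC-25 cells, measured with a cell viability assay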
Description: SANGER: Inhibition of human SCC-25 cell growth in a cell viability assay.

[20] = tested on: UACC-62; assay type: functional, cell-based, Homo sapiens; conditions: Homo sapiens, UACC-62;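 note: growth inhibition of human UACC-62 cells, read out by a cell viability assay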
Description: SANGER: Inhibition of human UACC-62 cell growth in a cell viability assay.

[21] = tested on: IST-MEL1; assay type: functional, cell-based, Homo sapiens; conditions: Homo sapiens, IST-MEL1;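 note: growth inhibition of the cell line, read out with a cell viability assay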
Description: SANGER: Inhibition of human IST-MEL1 cell growth in a cell viability assay.

[22] = tested on: S-117; assay type: functional, cell-based, Homo sapiens; conditions: Homo sapiens, S-117
Description: SANGER: Inhibition of human S-117 cell growth in a cell viability assay.

[23] = tested on: RH-1; assay type: functional, cell-based, Homo sapiens; conditions: Homo sapiens, RH-1;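 note: growth inhibition of human RH-1 cells, read out with a cell viability assay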
Description: SANGER: Inhibition of human RH-1 cell growth in a cell viability assay.

[24] = tested on: UACC-257; assay type: functional, cell-based, Homo sapiens; conditions: Homo sapiens, UACC-257
Description: SANGER: Inhibition of human UACC-257 cell growth in a cell viability assay.

[25] = tested on: ONS-76; assay type: functional, cell-based, Homo sapiens; conditions: Homo sapiens, ONS-76;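 note: growth inhibition of human ONS-76 cells, read out with a cell viability assay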
Description: SANGER: Inhibition of human ONS-76 cell growth in a cell viability assay.

[26] = tested on: NCI-H1650; assay type: functional, cell-based, Homo sapiens; conditions: Homo sapiens, NCI-H1650;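 note: growth inhibition of human NCI-H1650 cells measured by a cell viability assay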
Description: SANGER: Inhibition of human NCI-H1650 cell growth in a cell viability assay.

[27] = tested on: C32; assay type: functional, cell-based, Homo sapiens; conditions: Homo sapiens, C32;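 note: cell viability assay, with IC50 reflecting inhibition of C32 cell growth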
Description: SANGER: Inhibition of human C32 cell growth in a cell viability assay.

[28] = tested on: BCPAP; assay type: functional, cell-based, Homo sapiens; conditions: Homo sapiens, BCPAP;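 note: growth inhibition of BCPAP cells, read out in a cell viability assay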
Description: SANGER: Inhibition of human BCPAP cell growth in a cell viability assay.

[29] = tested on: A704; assay type: functional, cell-based, Homo sapiens; conditions: Homo sapiens, A704;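 note: growth inhibition of human A704 cells, read out with a cell viability assay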
Description: SANGER: Inhibition of human A704 cell growth in a cell viability assay.

[30] = tested on: DU-4475; assay type: functional, cell-based; conditions: Homo sapiens
Description: SANGER: Inhibition of human DU-4475 cell growth in a cell viability assay.

[31] = tested on: NCI-H1092; assay type: functional, cell-based; conditions: Homo sapiens;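 note: cell growth inhibition measured with a cell viability assay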
Description: SANGER: Inhibition of human NCI-H1092 cell growth in a cell viability assay.

[32] = tested on: J-RT3-T3-5; assay type: functional, cell-based; conditions: Homo sapiens;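 note: cell viability assay measuring growth inhibition of human J-RT3-T3-5 cells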
Description: SANGER: Inhibition of human J-RT3-T3-5 cell growth in a cell viability assay.

[33] = tested on: BB65-RCC; assay type: functional, cell-based, Homo sapiens; conditions: Homo sapiens, BB65-RCC;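 note: growth inhibition of the cell line, measured with a cell viability assay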
Description: SANGER: Inhibition of human BB65-RCC cell growth in a cell viability assay.

[34] = tested on: LN-405; assay type: functional, cell-based, Homo sapiens; conditions: Homo sapiens, LN-405
Description: SANGER: Inhibition of human LN-405 cell growth in a cell viability assay.

[35] = tested on: HEL; assay type: functional, cell-based, Homo sapiens; conditions: Homo sapiens, HEL;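 note: growth inhibition of HEL cells, read out with a cell viability assay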
Description: SANGER: Inhibition of human HEL cell growth in a cell viability assay.

[36] = tested on: DSH1; assay type: functional, cell-based, Homo sapiens; conditions: Homo sapiens, DSH1;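 note: growth inhibition of human DSH1 cells, measured with a cell viability readout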
Description: SANGER: Inhibition of human DSH1 cell growth in a cell viability assay.

[37] = tested on: D-263MG; assay type: functional, cell-based, Homo sapiens; conditions: Homo sapiens, D-263MG
Description: SANGER: Inhibition of human D-263MG cell growth in a cell viability assay.

[38] = tested on: RO82-W-1; assay type: functional, cell-based, Homo sapiens; conditions: Homo sapiens, RO82-W-1;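 note: growth inhibition of human RO82-W-1 cells, measured with a cell viability assay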
Description: SANGER: Inhibition of human RO82-W-1 cell growth in a cell viability assay.

[39] = tested on: 639-V; assay type: functional, cell-based, Homo sapiens; conditions: Homo sapiens, 639-V;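 note: growth inhibition of 639-V cells, read out with a cell viability assay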
Description: SANGER: Inhibition of human 639-V cell growth in a cell viability assay.

[40] = tested on: SK-MEL-24; assay type: functional, cell-based; conditions: Homo sapiens;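 note: growth inhibition read out by a cell viability assay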
Description: SANGER: Inhibition of human SK-MEL-24 cell growth in a cell viability assay.

[41] = tested on: LAN-6; assay type: functional, cell-based, Homo sapiens; conditions: Homo sapiens, LAN-6;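 note: growth inhibition of LAN-6 cells, determined with a cell viability assay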
Description: SANGER: Inhibition of human LAN-6 cell growth in a cell viability assay.

[42] = tested on: T98G; assay type: functional, cell-based, Homo sapiens; conditions: Homo sapiens, T98G;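 note: growth inhibition of T98G cells, read out by a cell viability assay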
Description: SANGER: Inhibition of human T98G cell growth in a cell viability assay.

[43] = tested on: KYSE-520 cell line; assay type: functional, cell-based, Homo sapiens; conditions: Homo sapiens, KYSE-520;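 note: growth inhibition of human KYSE-520 cells, read out with a viability assay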
Description: SANGER: Inhibition of human KYSE-520 cell growth in a cell viability assay.

[44] = tested on: ABC-1; assay type: functional, cell-based, Homo sapiens; conditions: Homo sapiens, ABC-1;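 note: growth inhibition of human ABC-1 cells, read out by a cell viability assay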
Description: SANGER: Inhibition of human ABC-1 cell growth in a cell viability assay.

[45] = tested on: HL-60; assay type: functional, cell-based; conditions: Homo sapiens;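 note: growth inhibition of human HL-60 cells, read out with a cell viability assay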
Description: SANGER: Inhibition of human HL-60 cell growth in a cell viability assay.

[46] = tested on: SNB-75; assay type: functional, cell-based, Homo sapiens; conditions: Homo sapiens, SNB-75;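 note: cell viability assay measuring growth inhibition of human SNB-75 cells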
Description: SANGER: Inhibition of human SNB75 cell growth in a cell viability assay.

[47] = tested on: NCI-H727; assay type: functional, cell-based, Homo sapiens; conditions: Homo sapiens, NCI-H727;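 note: growth inhibition of human NCI-H727 cells, read out with a cell viability assay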
Description: SANGER: Inhibition of human NCI-H727 cell growth in a cell viability assay.

[48] = tested on: HCC1937; assay type: functional, cell-based, Homo sapiens; conditions: Homo sapiens, HCC1937;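 note: growth inhibition measured with a cell viability read-out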
Description: SANGER: Inhibition of human HCC1937 cell growth in a cell viability assay.

[49] = tested on: OE33; assay type: functional, cell-based, Homo sapiens; conditions: Homo sapiens, OE33;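 note: growth inhibition of human OE33 cells, measured by a cell viability assay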
Description: SANGER: Inhibition of human OE33 cell growth in a cell viability assay.

[50] = tested on: CAS-1; assay type: functional, cell-based, Homo sapiens; conditions: Homo sapiens, CAS-1;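 note: growth inhibition of CAS-1 cells, measured with a cell viability assay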
Description: SANGER: Inhibition of human CAS-1 cell growth in a cell viability assay.

[51] = tested on: CHL-1; assay type: functional, cell-based, Homo sapiens; conditions: Homo sapiens, CHL-1;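 note: cell growth inhibition, read out with a cell viability assay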
Description: SANGER: Inhibition of human CHL-1 cell growth in a cell viability assay.

## Cc1cnc(-c2cnc(NCCNc3ccc(C#N)cn3)nc2-c2ccc(Cl)cc2Cl)[nH]1 [LADUVIGLUSIB]
[1]
  IC50: > 2560 nM
[2]
  IC50: > 2560 nM
[3]
  IC50: > 2560 nM
[4]
  IC50: > 2560 nM
[5]
  IC50: > 2560 nM
[6]
  IC50: > 2560 nM
[7]
  IC50: > 2560 nM
[8]
  IC50: > 2560 nM
[9]
  IC50: > 2560 nM
[10]
  IC50: > 2560 nM
[11]
  IC50: > 2560 nM
[12]
  IC50: > 2560 nM
[13]
  IC50: > 2560 nM
[14]
  IC50: > 2560 nM
[15]
  IC50: > 2560 nM
[16]
  IC50: > 2560 nM
[17]
  IC50: > 2560 nM
[18]
  IC50: 585 nM
[19]
  IC50: > 2560 nM
[20]
  IC50: > 2560 nM
[21]
  IC50: > 2560 nM
[22]
  IC50: 921 nM
[23]
  IC50: > 2560 nM
[24]
  IC50: > 2560 nM
[25]
  IC50: > 2560 nM
[26]
  IC50: > 2560 nM
[27]
  IC50: > 2560 nM
[28]
  IC50: 1670 nM
[29]
  IC50: > 2560 nM
[30]
  IC50: > 2560 nM
[31]
  IC50: > 2560 nM
[32]
  IC50: > 2560 nM
[33]
  IC50: > 2560 nM
[34]
  IC50: > 2560 nM
[35]
  IC50: > 2560 nM
[36]
  IC50: > 2560 nM
[37]
  IC50: > 2560 nM
[38]
  IC50: > 2560 nM
[39]
  IC50: > 2560 nM
[40]
  IC50: > 2560 nM
[41]
  IC50: > 2560 nM
[42]
  IC50: > 2560 nM
[43]
  IC50: > 2560 nM
[44]
  IC50: > 2560 nM
[45]
  IC50: > 2560 nM
[46]
  IC50: > 2560 nM
[47]
  IC50: > 2560 nM
[48]
  IC50: > 2560 nM
[49]
  IC50: > 2560 nM
[50]
  IC50: > 2560 nM
[51]
  IC50: > 2560 nM

## C=CCc1cccc(/C=N/NC(=O)CN2CCN(Cc3ccccc3)CC2)c1O [PAC-1]
[1]
  IC50: > 2560 nM
[2]
  IC50: > 2560 nM
[3]
  IC50: > 2560 nM
[4]
  IC50: > 2560 nM
[5]
  IC50: 2500 nM
[6]
  IC50: > 2560 nM
[7]
  IC50: 1660 nM
[8]
  IC50: > 2560 nM
[9]
  IC50: > 2560 nM
[10]
  IC50: 2190 nM
[11]
  IC50: > 2560 nM
[12]
  IC50: > 2560 nM
[13]
  IC50: > 2560 nM
[14]
  IC50: > 2560 nM
[15]
  IC50: > 2560 nM
[16]
  IC50: > 2560 nM
[17]
  IC50: > 2560 nM
[18]
  IC50: > 2560 nM
[19]
  IC50: > 2560 nM
[20]
  IC50: > 2560 nM
[21]
  IC50: > 2560 nM
[22]
  IC50: > 2560 nM
[23]
  IC50: > 2560 nM
[24]
  IC50: > 2560 nM
[25]
  IC50: > 2560 nM
[26]
  IC50: > 2560 nM
[27]
  IC50: > 2560 nM
[28]
  IC50: > 2560 nM
[29]
  IC50: > 2560 nM
[30]
  IC50: 1910 nM
[31]
  IC50: > 2560 nM
[32]
  IC50: 1200 nM
[33]
  IC50: > 2560 nM
[34]
  IC50: > 2560 nM
[35]
  IC50: > 2560 nM
[36]
  IC50: > 2560 nM
[37]
  IC50: > 2560 nM
[38]
  IC50: > 2560 nM
[39]
  IC50: > 2560 nM
[40]
  IC50: > 2560 nM
[41]
  IC50: > 2560 nM
[42]
  IC50: > 2560 nM
[43]
  IC50: > 2560 nM
[44]
  IC50: > 2560 nM
[45]
  IC50: > 2560 nM
[46]
  IC50: > 2560 nM
[47]
  IC50: 2000 nM
[48]
  IC50: > 2560 nM
[49]
  IC50: > 2560 nM
[50]
  IC50: > 2560 nM
[51]
  IC50: > 2560 nM
